From patent US20090158447A1, “TLR ligand and IL-1 Response-Injured Animal Model” (priority 2004, published 2009)

Legend:
[1] = system: peritoneal macrophages or lung-derived normal cells; test: Northern blot analysis of IκB-ζ, Bcl-3 and IκB-α expression on TLR/IL-1R stimulation; format: cell-based, mouse; details: stimulation for 2 hours, FIG. 1a
Method: Peritoneal macrophages and lung primary cells were stimulated with 100 ng ml^−1 BLP, 10 μg ml^−1 PGN, 30 ng ml^−1 MALP-2, 100 nM R-848, 3 μM CpG DNA, 10 ng ml^−1 IL-1β, 10 μg ml^−1 LPS, 100 ng ml^−1 flagellin, and 10 ng ml^−1 TNF-α for 2 hours. Total RNA (10 μg) was extracted and subjected to Northern blot analysis for investigating the expression of IκB-ζ, Bcl-3, IκB-α, and β-actin. b. MEFs from wild-type and MyD88-deficient mice were stimulated with 10 ng ml^−1 IL-1β and 10 μg ml^−1 LPS for the indicated periods. Total RNA (10 μg) was extracted and subjected to Northern blot analysis for investigating the expression of IκB-ζ, Cox-2, IP-10, and β-actin.
Whether IκB-ζ would be induced in response to other TLR ligands was examined based on the fact that stimulation with IL-1 or LPS induces IκB-ζ in macrophage cell lines and fibroblasts, and that IL-1R and the receptor for LPS, TLR4, share the intracellular signaling pathways. […] On the other hand, other IκB family members, IκB-α and Bcl-3, were induced in response to TNF-αas well as a TLR ligand and IL-1. Taken together, unlike IκB-α and Bcl-3, the IκB-ζ induction is specifically detected on the TLR/IL-1R stimulation.

[2] = target: T1, IκB-ζ (mouse, UniProt Q9EST8 1-728, limits assumed); test: co-immunoprecipitation from peritoneal macrophage lysates, immunoblot with α-IκB-ζ
T1 construct: also called MAIL; INAP
T1 sequence (looked up): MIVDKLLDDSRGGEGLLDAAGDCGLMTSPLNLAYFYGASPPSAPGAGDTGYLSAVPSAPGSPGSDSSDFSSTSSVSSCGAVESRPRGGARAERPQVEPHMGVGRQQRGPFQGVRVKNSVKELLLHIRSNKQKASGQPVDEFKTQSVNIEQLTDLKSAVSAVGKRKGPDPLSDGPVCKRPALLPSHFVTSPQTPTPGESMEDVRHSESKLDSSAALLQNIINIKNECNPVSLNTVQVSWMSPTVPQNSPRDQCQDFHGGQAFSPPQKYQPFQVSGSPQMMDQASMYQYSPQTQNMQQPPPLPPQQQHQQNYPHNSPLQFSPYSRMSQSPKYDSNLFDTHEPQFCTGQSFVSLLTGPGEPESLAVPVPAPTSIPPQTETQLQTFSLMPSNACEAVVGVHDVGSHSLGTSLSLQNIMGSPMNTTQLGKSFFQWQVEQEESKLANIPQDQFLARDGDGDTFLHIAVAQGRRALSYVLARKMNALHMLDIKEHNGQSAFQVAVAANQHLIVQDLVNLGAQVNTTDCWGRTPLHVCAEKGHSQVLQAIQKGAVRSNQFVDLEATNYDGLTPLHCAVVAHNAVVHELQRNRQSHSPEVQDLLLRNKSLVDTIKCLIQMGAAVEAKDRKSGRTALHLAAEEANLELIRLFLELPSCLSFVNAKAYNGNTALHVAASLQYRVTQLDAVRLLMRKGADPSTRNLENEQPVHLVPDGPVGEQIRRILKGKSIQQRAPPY
From the text: RAW 264.7 cells were transiently transfected with luciferase reporter constructs of either mouse IL-6 promoter or ELAM1 promoter together with either a control or the IκB-ζ expression plasmid. Luciferase activities were expressed as fold-increase over the background shown by lysates prepared from untransfected cells. Data are representative of three separate experiments. In all three experiments, cells were stimulated with the indicated concentrations of LPS. b. A certain amount of IκB-ζ expression vector was transiently introduced into untreated RAW 264.7 cells with the indicated amount of IL-6 reporter plasmid. Data are representative of three independent experiments. c. Reporter constructs of either a wild-type or mutant IL-6 promoter were transiently introduced into P19 embryonic canrinoma cells together with either a control or an IκB-ζ expression plasmid. Luciferase activities were normalized in each case of reporter constructs by dividing the increase rate of IκB-ζ-expressed cells over the background shown by lysates by that of mock-expressed cells. d. Chromatin from untreated (−) or LPS-treated (+) (1 μg ml⁻¹ for 3 hours) RAW 264.7 cells were used for ChIp with the indicated antibodies. Precipitated DNA for the IL-6 κB site (left), 3′ region of IL-6 gene (center), or ELAM1 promoter (right) was measured by PCR (ChIP). Data are representative of two independent experiments. e. Unstimulated or LPS-stimulated (10 ng ml⁻¹) peritoneal macrophages were immunoprecepitated with the indicated antibodies. The immunoprecipitated lysates were subsequently immunoblotted with α-IκB-ζ.
Peritoneal macrophages and MEFs were stimulated with the indicated ligands for the indicated periods. The cells were then lysed in a lysis buffer containing 1.0% Nonidet-P40, 150 mM NaCl, 20 mM Tris-Cl (pH 7.5), 5 mM EDTA and protein inhibitor (Roche). The cell lysates were dissolved by SDS-PAGE and transferred on a PVDF membrances. For immunoprecipitation, cell lysates were precleared with Protein G-Sepharose™ (Amersham Pharmacia Biotech) for 2 h and then incubated with Protein G-Sepharose™ containing 1.0 μg of the indicated antibodies for 12 h with stirring at 4° C. The immunoprecipitants were washed four times with lysis buffer, eluted by boiling with Laemnli sample buffer, and subjected to Western blotting using α-IκB-ζ, as described above.

## CCOCc1nc2c(N)nc3ccccc3c2n1CC(C)(C)O [R848]
[1]
  IκB-ζ mRNA induction: strongly induced

## IL-1: Interleukin-1; recombinant IL-1β obtained from Genzyme
[1]
  Bcl-3 induction: induced
  IκB-α induction: induced
  IκB-ζ mRNA induction: strongly induced

## MALP-2
[1]
  IκB-ζ mRNA induction: strongly induced

## TNF-α
[1]
  Bcl-3 induction: induced
  IκB-α induction: induced
  IκB-ζ mRNA induction: no induction was observed

## flagellin
[1]
  IκB-ζ mRNA induction: strongly induced

## peptidoglycan [PGN]
[1]
  IκB-ζ mRNA induction: strongly induced

B1: RelB (other, mouse, UniProt Q04863 1-558, looked up)
chain: MPSRRAARESAPELGALGSSDLSSLSLTVSRTTDELEIIDEYIKENGFGLDGTQLSEMPRLVPRGPASLSSVTLGPAAPPPPATPSWSCTLGRLVSPGPCPRPYLVITEQPKQRGMRFRYECEGRSAGSILGESSTEASKTLPAIELRDCGGLREVEVTACLVWKDWPHRVHPHSLVGKDCTDGVCRVRLRPHVSPRHSFNNLGIQCVRKKEIEAAIERKIQLGIDPYNAGSLKNHQEVDMNVVRICFQASYRDQQGHLHRMDPILSEPVYDKKSTNTSELRICRINKESGPCTGGEELYLLCDKVQKEDISVVFSTASWEGRADFSQADVHRQIAIVFKTPPYEDLEISEPVTVNVFLQRLTDGVCSEPLPFTYLPRDHDSYGVDKKRKRGLPDVLGELSSSDPHGIESKRRKKKPVFLDHFLPGHSSGLFLPPSALQPADSDFFPASISLPGLEPPGGPDLLDDGFAYDPSAPTLFTMLDLLPPAPPLASAVVGSGGAGATVVESSGPEPLSLDSFAAPGPGDVGTASLVGSNMFPNQYREAAFGGGLLSPGPEAT
[2]
  binding result: no binding

B2: c-Rel (other, mouse, UniProt P15307 2-587, looked up)
chain: ASSGYNPYVEIIEQPRQRGMRFRYKCEGRSAGSIPGERSTDNNRTYPSVQIMNYYGKGKIRITLVTKNDPYKPHPHDLVGKDCRDGYYEAEFGPERRPLFFQNLGIRCVKKKEVKGAIILRISAGINPFNVGEQQLLDIEDCDLNVVRCVFMFFLPDEDGNFTTALPPIVSNPIYDNRAPNTAELRICRVNKNCGSVRGGDEIFLLCDKVQKDDIEVRFVLNDWEARGVFSQADVHRQVAIVFKTPPYCKAILEPVTVKMQLRRPSDQEVSESMDFRYLPDEKDAYGNKSKKQKTTLIFQKLLQDCGHFTEKPRTAPLGSTGEGRFIKKESNLFSHGTVLPEMPRSSGVPGQAEPYYSSCGSISSGLPHHPPAIPSVAHQPTSWPPVTHPTSHPVSTNTLSTFSAGTLSSNSQGILPFLEGPGVSDLSASNSCLYNPDDLARMETPSMSPTDLYSISDVNMLSTRPLSVMAPSTDGMGDTDNPRLVSINLENPSCNARLGPRDLRQLHQMSPASLSAGTSSSSVFVSQSDAFDRSNFSCVDNGLMNEPGLSDDANNPTFVQSSHYSVNTLQSEQLSDPFTYGFFKI
notes: Immunoprecipitated with anti-c-Rel (Santa Cruz)
[2]
  binding result: no binding

B3: RelA (other, mouse, UniProt Q04207 1-549, looked up)
chain: MDDLFPLIFPSEPAQASGPYVEIIEQPKQRGMRFRYKCEGRSAGSIPGERSTDTTKTHPTIKINGYTGPGTVRISLVTKDPPHRPHPHELVGKDCRDGYYEADLCPDRSIHSFQNLGIQCVKKRDLEQAISQRIQTNNNPFHVPIEEQRGDYDLNAVRLCFQVTVRDPAGRPLLLTPVLSHPIFDNRAPNTAELKICRVNRNSGSCLGGDEIFLLCDKVQKEDIEVYFTGPGWEARGSFSQADVHRQVAIVFRTPPYADPSLQAPVRVSMQLRRPSDRELSEPMEFQYLPDTDDRHRIEEKRKRTYETFKSIMKKSPFNGPTEPRPPTRRIAVPTRNSTSVPKPAPQPYTFPASLSTINFDEFSPMLLPSGQISNQALALAPSSAPVLAQTMVPSSAMVPLAQPPAPAPVLTPGPPQSLSAPVPKSTQAGEGTLSEALLHLQFDADEDLGALLGNSTDPGVFTDLASVDNSEFQQLLNQGVSMSHSTAEPMLMEYPEAITRLVTGSQRPPDPAPTPLGTSGLPNGLSGDEDFSSIADMDFSALLSQISS
notes: Immunoprecipitated with anti-RelA (Santa Cruz); also called NF-κB RelA
[2]
  binding result: no binding

B4: p52 subunit (other, mouse, UniProt Q9WTK5 1-454, looked up)
chain: MDNCYDPGLDGIPEYDDFEFSPSIVEPKDPAPETADGPYLVIVEQPKQRGFRFRYGCEGPSHGGLPGASSEKGRKTYPTVKICNYEGPAKIEVDLVTHSDPPRAHAHSLVGKQCSELGVCAVSVGPKDMTAQFNNLGVLHVTKKNMMEIMIQKLQRQRLRSKPQGLTEAERRELEQEAKELKKVMDLSIVRLRFSAFLRASDGSFSLPLKPVISQPIHDSKSPGASNLKISRMDKTAGSVRGGDEVYLLCDKVQKDDIEVRFYEDDENGWQAFGDFSPTDVHKQYAIVFRTPPYHKMKIERPVTVFLQLKRKRGGDVSDSKQFTYYPLVEDKEEVQRKRRKALPTFSQPFGGGSHMGGGSGGSAGGYGGAGGGGSLGFFSSSLAYNPYQSGAAPMGCYPGGGGGAQMAGSRRDTDAGEGAEEPRTPPEAPQGEPQALDTLQRAREYNARLFGLA
[2]
  binding result: no binding
